Consider 11 compounds from patent publication US4532202A, “Coupler for photography” (Konishiroku Photo Industry Co., Ltd., priority 1982, dated 1985).

Data set [1] is described as follows: Photographic characteristics (sensitivity, maximum density, maximum absorption) of silver halide color photographic material containing coupler. The note with it: cyan dye formed. The procedure: The resultant solution was mixed with 5 ml of an aqueous 10% solution of Alkanol B (aklylnaphthalene sulfonate, produced by Du Pont de Nemours & Co.) and 200 ml of an aqueous 5% gelatin solution and emulsified by means of a colloid mill to prepare respective coupler dispersions. Then, each of these coupler dispersions was added to 500 g of a gelatin-silver chlorobromide emulsion, and the mixture was applied on polyethylene coated paper, followed by drying, to prepare six kinds of light-sensitive silver halide color photographic materials. These samples were subjected to wedge exposure following the conventional procedure and then processed as follows.
Processing step (30° C.)
Color developing 3 min. 30 sec.
Bleach-fixing 1 min. 30 sec.
Washing with water 2 min.
In the following, compositions of respective processing solutions are shown.
[Composition of color developing solution]
4-Amino-3-methyl-N--ethyl-N--
(β-methanesulfonamidoethyl)-aniline sulfate
Sodium hexamethaphosphate 2.5 g
Anhydrous sodium sulfite 1.85 g
Made up to one liter with addition of water, and adjusted to pH 10.30 with sodium hydroxide.
[Composition of bleach-fixing solution]
Iron ammonium salt of ethylenediaminetetraacetic
Diammonium salt of ethylenediaminetetraacetic
Ammonium thiosulfate 124.5 g
Sodium metabisulfite 13.3 g
Anhydrous sodium sulfite 2.7 g
Made up to one liter with addition of water.
For samples obtained by the above processing, photographic characteristics were measured respectively. Measurements were conducted by use of PDA-60 Model sensitometer (produced by Konishiroku Photo Industry Co.) The results are shown in Table 3 below.
The sensitivity values are shown as relative sensitivities to the value of the sample having the highest sensitivity as 100.

Data set [2] in a line: Solubility test of couplers in di-n-butyl phthalate / ethyl acetate, visual evaluation of crystal precipitation. It is filed as physicochemical. The arrangement: key: A: no precipitation; B: slight precipitation; C: precipitation in large amount. The settings on record: 1 g coupler in 1 ml di-n-butyl phthalate and 4 ml ethyl acetate, dissolved at 70° C., left to stand at 20° C. The procedure:
Solubility tests were conducted by use of the couplers for photography of this invention and Control couplers as indicated in Table 2 below. Each one gram of respective couplers was added to a mixture of 1 ml of di-n-butyl phthalate and 4 ml of ethyl acetate and the resulting mixture was heated at 70° C. for complete dissolution, followed by sealing with a stopper. Each sample was left to stand at 20° C. and precipitation of crystals was evaluated by visual observation. In Table 2, in the evaluation column, A represents no precipitation, B slight precipitation and C precipitation in large amount.

Structures are written as SMILES.

Turning to `CCCCCCCCCCCCC(Oc1ccc(O)c(C(C)(C)C)c1)C(=O)Nc1ccc(NC(=O)c2ccccc2F)c(O)c1` (stereo not drawn) [Control coupler (G)], the Maximum absorption in data set [1] was 640 nm.

As for `CCC(C)C(Oc1ccc(C(C)(C)CC)cc1C(C)(C)CC)C(=O)Nc1cc(O)c(NC(=O)c2c(F)c(F)c(F)c(F)c2F)cc1Cl` (stereo not drawn) [Exemplary compound (I-4)], in data set [2], the “Evaluation of solubility After 6 hours” value was “A”, the “Evaluation of solubility After 12 hours” value was “A” and the “Evaluation of solubility After one hour” value was “A”.

As for `CCC(Oc1ccc(C(C)(C)CC)cc1C(C)(C)CC)C(=O)Nc1cc(Cl)c(C)c(Cl)c1O` (stereo not drawn) [Control coupler (E)], in data set [1], the Maximum absorption was determined as 654 nm.

As to `CCCCCCCCCCCCC(Oc1ccc(C(C)(C)CC)cc1C(C)(C)CC)C(=O)Nc1cc(O)c(NC(=O)c2c(F)c(F)c(F)c(F)c2F)cc1Cl` (stereo not drawn) [Control coupler (D)], in data set [2], the “Evaluation of solubility After 6 hours” value is “B”, the “Evaluation of solubility After 12 hours” value was “C” and the “Evaluation of solubility After one hour” value is given as “B”.

As to `CCCCCCCCCCCCCCCc1cccc(OC(C(=O)Nc2cc(O)c(NC(=O)c3c(F)c(F)c(F)c(F)c3F)cc2Cl)C(C)C)c1` (stereo not drawn) [Exemplary compound (I-10), 2-(2,3,4,5,6-pentafluoro)benzamido-4-chloro-5-[α-(m-pentadecylphenoxy)-β-methylbutaneamido]phenol], the Maximum absorption in data set [1] is 654 nm.

For the compound `CCC(C)(C)c1ccc(OC(C(=O)Nc2cc(O)c(NC(=O)c3c(F)c(F)c(F)c(F)c3F)cc2Cl)C(C)C)c(C(C)(C)CC)c1` (stereo not drawn) [Exemplary compound (I-2), 2-(2,3,4,5,6-pentafluoro)benazmido-4-chloro-5-[α-(2,4-di-t-amylphenoxy)-β-methylbutaneamido]phenol], in data set [2], the “Evaluation of solubility After 6 hours” value is “A”, the “Evaluation of solubility After 12 hours” value was “A” and the “Evaluation of solubility After one hour” value is “A”. The compound also displayed a Maximum absorption in data set [1] of 655 nm.

On to `CCCCCCCCC(Oc1ccc(C(C)(C)CC)cc1C(C)(C)CC)C(=O)Nc1cc(O)c(NC(=O)c2c(F)c(F)c(F)c(F)c2F)cc1Cl` (stereo not drawn) [Control coupler (C)], for which, in data set [2], the “Evaluation of solubility After 6 hours” value is reported as “C”, the “Evaluation of solubility After 12 hours” value is listed as “C” and the “Evaluation of solubility After one hour” value was “B”.

Consider `CCC(Oc1ccc(C(C)(C)CC)cc1C(C)(C)CC)C(=O)Nc1cc(O)c(NC(=O)c2c(F)c(F)c(F)c(F)c2F)cc1Cl` (stereo not drawn) [Control coupler (B)], for which, in data set [2], the “Evaluation of solubility After 6 hours” value was “C”, the “Evaluation of solubility After 12 hours” value was “C” and the “Evaluation of solubility After one hour” value is given as “B”.

In data set [1], `CCCCCCCCCCCCC(Oc1ccc(NS(=O)(=O)CCCC)cc1)C(=O)Nc1cc(O)c(NC(=O)c2ccccc2)cc1Cl` (stereo not drawn) [Control coupler (F)] returned a Maximum absorption of 641 nm.

As to `CC(C)C(Oc1ccc(C(C)(C)C)cc1C(C)(C)C)C(=O)Nc1cc(O)c(NC(=O)c2c(F)c(F)c(F)c(F)c2F)cc1Cl` (stereo not drawn) [Exemplary compound (I-3)], in data set [2], the “Evaluation of solubility After 6 hours” value is on record as “A”, the “Evaluation of solubility After 12 hours” value is listed as “A” and the “Evaluation of solubility After one hour” value is given as “A”.

`CCCCS(=O)(=O)Nc1ccc(OC(C(=O)Nc2cc(O)c(NC(=O)c3c(F)c(F)c(F)c(F)c3F)cc2Cl)C(C)C)cc1` (stereo not drawn) [Exemplary compound (I-11)] registered a Maximum absorption in data set [1] of 657 nm.
